Results taken from patent US8927501B2, “αvβ6 peptide ligands and their uses” (priority 2005, dated 2015).
Where a SMILES comes first, the peptide text is derived from it.

Tests used:
[1] = target: T1, αvβ6 (Homo sapiens, UniProt P06756+P18564); experiment: Cell adhesion assay: αvβ6-dependent adhesion of VB6 cells to LAP; type: cell-based
T1 construct: endogenous in cells; host or cells: VB6 human oral squamous cell carcinoma

[2] = target: rsαvβ6 (Homo sapiens, UniProt P06756+P18564); experiment: biochemical; type: binding
[3] = target: αvβ6 (UniProt P18564+P43406); experiment: cell-based; design: species or system mouse
αvβ6 (UniProt P18564+P43406), sequence (P43406 31-1044 limits assumed): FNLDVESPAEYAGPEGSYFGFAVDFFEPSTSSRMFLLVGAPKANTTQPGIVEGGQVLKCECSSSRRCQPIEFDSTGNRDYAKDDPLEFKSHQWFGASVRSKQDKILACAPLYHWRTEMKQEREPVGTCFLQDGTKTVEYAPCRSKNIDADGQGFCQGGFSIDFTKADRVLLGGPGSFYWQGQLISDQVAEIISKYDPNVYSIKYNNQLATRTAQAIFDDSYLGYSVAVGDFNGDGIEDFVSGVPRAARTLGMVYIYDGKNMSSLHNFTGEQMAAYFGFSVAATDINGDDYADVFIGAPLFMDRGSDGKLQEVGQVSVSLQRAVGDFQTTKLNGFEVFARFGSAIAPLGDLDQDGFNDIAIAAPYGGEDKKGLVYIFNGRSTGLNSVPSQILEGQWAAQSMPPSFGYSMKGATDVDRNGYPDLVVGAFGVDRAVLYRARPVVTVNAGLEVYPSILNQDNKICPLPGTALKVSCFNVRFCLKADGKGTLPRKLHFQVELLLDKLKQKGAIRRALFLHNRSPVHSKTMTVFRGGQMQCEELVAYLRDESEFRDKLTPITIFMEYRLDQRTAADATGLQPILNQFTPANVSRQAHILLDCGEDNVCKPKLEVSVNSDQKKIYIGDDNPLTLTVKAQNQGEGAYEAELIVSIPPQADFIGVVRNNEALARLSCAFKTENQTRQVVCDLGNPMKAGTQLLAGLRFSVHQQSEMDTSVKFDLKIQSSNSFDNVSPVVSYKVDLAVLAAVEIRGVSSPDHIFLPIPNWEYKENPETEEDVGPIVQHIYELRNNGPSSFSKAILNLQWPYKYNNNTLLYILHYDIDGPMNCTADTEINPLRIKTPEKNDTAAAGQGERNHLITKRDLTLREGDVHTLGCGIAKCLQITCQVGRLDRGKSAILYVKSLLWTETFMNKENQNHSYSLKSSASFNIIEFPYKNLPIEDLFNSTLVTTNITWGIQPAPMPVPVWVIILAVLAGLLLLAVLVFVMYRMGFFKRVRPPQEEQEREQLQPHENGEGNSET
αvβ6 (UniProt P18564+P43406), sequence (P18564 22-788 limits assumed): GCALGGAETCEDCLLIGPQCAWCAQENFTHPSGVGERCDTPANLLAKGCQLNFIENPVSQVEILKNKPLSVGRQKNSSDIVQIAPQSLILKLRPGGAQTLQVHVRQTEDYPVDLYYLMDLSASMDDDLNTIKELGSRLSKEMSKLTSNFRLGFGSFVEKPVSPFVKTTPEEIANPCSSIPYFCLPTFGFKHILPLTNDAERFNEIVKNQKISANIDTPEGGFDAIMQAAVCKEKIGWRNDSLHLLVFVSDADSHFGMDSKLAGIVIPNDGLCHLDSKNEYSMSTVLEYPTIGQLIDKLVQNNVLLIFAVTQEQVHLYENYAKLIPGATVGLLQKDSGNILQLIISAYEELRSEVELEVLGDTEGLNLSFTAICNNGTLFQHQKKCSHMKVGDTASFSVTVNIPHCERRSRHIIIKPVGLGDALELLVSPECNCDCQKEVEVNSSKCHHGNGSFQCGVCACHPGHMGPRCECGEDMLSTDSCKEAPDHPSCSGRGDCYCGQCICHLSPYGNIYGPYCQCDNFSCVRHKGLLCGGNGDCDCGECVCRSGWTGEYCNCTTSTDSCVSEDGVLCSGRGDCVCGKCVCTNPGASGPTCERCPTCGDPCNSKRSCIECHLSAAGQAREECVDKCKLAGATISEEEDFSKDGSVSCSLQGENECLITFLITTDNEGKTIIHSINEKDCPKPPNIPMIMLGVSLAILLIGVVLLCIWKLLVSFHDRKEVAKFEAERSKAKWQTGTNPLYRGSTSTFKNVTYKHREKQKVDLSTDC

rsαvβ6, sequence (P06756 31-992 limits assumed): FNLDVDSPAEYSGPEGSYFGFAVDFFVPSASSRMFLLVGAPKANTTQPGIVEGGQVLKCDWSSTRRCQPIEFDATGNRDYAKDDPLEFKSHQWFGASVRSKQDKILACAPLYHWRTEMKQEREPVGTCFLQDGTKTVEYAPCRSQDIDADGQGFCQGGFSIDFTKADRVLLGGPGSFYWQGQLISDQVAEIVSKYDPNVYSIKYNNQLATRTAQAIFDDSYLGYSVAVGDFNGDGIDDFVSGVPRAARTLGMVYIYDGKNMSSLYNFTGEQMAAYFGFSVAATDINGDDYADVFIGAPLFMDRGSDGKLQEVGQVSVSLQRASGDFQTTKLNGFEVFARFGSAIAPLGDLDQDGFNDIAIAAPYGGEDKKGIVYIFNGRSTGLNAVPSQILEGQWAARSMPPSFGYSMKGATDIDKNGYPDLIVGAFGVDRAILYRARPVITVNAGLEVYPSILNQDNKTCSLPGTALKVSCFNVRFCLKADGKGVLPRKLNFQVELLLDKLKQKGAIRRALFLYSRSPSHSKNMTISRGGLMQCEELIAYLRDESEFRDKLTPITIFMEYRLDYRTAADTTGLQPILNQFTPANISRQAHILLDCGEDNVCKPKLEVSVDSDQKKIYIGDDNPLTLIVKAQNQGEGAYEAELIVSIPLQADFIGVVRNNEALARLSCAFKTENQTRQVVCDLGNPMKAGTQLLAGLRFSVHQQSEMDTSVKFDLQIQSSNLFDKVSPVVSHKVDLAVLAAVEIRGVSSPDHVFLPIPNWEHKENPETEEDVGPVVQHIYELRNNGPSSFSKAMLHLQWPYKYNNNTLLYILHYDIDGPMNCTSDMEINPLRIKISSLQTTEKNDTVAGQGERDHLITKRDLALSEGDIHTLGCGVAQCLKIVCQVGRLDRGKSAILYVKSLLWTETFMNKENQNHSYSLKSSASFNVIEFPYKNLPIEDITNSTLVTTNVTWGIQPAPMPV
rsαvβ6, sequence (P18564 22-709 limits assumed): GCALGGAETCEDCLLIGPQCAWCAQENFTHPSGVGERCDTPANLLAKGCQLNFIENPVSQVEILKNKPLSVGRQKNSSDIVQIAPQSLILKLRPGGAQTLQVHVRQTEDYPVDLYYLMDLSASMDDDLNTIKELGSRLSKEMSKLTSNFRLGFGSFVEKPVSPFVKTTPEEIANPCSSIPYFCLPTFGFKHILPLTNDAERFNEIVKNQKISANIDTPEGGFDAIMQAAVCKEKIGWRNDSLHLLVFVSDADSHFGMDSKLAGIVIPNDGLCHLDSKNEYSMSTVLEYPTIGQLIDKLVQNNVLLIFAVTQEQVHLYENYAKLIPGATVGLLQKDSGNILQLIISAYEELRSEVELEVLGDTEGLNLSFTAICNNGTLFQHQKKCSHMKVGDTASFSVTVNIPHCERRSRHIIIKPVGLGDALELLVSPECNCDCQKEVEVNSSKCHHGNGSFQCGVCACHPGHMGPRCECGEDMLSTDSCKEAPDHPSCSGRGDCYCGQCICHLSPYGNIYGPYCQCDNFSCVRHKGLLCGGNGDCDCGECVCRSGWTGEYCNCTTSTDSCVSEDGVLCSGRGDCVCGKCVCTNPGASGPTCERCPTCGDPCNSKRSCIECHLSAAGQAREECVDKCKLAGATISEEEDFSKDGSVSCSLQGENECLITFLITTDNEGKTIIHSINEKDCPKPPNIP
T1 sequence (P06756 31-1048): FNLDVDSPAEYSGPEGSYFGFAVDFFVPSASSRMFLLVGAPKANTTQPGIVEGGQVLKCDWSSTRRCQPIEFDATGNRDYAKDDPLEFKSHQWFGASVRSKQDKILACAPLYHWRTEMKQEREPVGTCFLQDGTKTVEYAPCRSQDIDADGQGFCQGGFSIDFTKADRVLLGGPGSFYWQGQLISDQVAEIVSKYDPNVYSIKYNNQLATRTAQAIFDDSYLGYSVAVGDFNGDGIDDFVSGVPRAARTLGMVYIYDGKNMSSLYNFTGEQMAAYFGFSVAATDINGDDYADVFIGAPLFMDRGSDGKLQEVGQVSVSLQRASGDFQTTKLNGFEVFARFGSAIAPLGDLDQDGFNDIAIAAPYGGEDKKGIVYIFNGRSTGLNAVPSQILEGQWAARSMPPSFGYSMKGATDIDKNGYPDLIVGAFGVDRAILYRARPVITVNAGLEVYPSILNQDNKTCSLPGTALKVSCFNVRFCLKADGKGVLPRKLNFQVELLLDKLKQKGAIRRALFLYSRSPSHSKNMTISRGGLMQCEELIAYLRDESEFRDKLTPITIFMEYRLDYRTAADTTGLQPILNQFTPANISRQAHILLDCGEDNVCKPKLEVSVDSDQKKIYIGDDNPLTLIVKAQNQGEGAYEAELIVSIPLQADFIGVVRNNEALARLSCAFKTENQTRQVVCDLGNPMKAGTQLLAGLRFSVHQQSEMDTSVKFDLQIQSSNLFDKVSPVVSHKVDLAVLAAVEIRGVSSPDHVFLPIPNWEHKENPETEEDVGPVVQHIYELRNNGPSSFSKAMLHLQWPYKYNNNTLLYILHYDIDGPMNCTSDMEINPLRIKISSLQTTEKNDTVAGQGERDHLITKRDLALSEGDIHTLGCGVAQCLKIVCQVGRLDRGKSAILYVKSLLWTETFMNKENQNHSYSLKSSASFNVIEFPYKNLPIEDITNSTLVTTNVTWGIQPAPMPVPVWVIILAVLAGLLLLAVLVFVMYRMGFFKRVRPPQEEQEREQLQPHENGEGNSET
T1 sequence (P18564 22-788): as the sequence (P18564 22-788 limits assumed) above

`CC[C@H](C)[C@H](NC(=O)[C@@H](NC(=O)[C@H](C)NC(=O)[C@H](CC(C)C)NC(=O)[C@H](CC(=O)O)NC(=O)CNC(=O)[C@H](CCCNC(=N)N)NC(=O)[C@H](CCCNC(=N)N)NC(=O)CNC(=O)[C@@H](N)[C@@H](C)O)[C@@H](C)O)C(=O)O` [DD3] (H-TGRRGDLATI-OH; N-terminus and C-terminus assumed) was tested, and the “effect on VB6 adhesion to LAP” value [1] was “little effect”, the IC50 [2] was 22.6 nM and the “adhesion of 3T3β6.19 to LAP, % of control cell adhesion” value [3] was 79±22%.
